The nature of series [1]: XTT proliferation (cytotoxicity) assay, normal fibroblasts. Format: cell-based, mouse. The note with it: mouse, NIH-3T3 normal mouse fibroblasts, read-out: Lethal Concentration (LC50). As for the experimental part:
The CL1 human prostate carcinoma (PC) cell line is an androgen-independent (AI) subclone of LNCaP cell line, which was generated by culturing androgen-dependent (AD) LNCaP cells in charcoal-stripped, […], as described (Patel et al. 2000). 22RV1 human PC cells are AI sub-clones of the AD prostatic adenocarcinoma CWR22 xenograft (Sramkoski et al. 1999). CL1 and 22RV1 (ATCC, USA) were grown in RPMI-1640 supplemented with 10% FCS (Biological Industries, Beit Haemek, Israel). PC3 and DU145 are androgen-insensitive (AI) (non-responsive), invasive human prostate cancer cell lines. NIH-3T3 mouse fibroblast cell lines (ATCC, USA) were grown in DMEM supplemented with 10% BS. Murine Lewis lung carcinoma (LLC) cell lines were also grown in DMEM medium supplemented with 10% fetal calf serum and antibiotics under the same conditions as above.
The anticancer activity of the diastereomers 1, 5 and 11-16, 36-39, 42 and 44 was examined against human CL1 prostate cancer, murine LLC (Lewis lung carcinoma), DU 145 and PC3 cell lines. The cell selectivity of the diastereomeric peptides was also studied by examining their effect on NIH-3T3 normal mouse fibroblasts cell line.
A 96-well plate (Falcon) was used for the XTT proliferation assay. Cancer cells were grown for 24 hours (day 1) in RPMI-1640 medium ([…] cells/100 μl for LLC, CL1, 22RVI, DU 145 and PC3, respectively) supplemented with 10% fetal calf serum and antibiotics, at 37° C., in humidified atmosphere at 5% CO2 and 95% air, resulting in growth medium pH of 7.4. NIH-3T3 fibroblast cells (1×10^4 cells/100 μl) were grown in DMEM medium supplemented with 10% bovine calf serum and antibiotics under the same conditions as described above for the cancerous cells. Wells in the last two rows served as blanks (medium only, for measuring the background color of the medium) and 100% survival controls (cells and medium only without treatment), respectively.
In day 2, the peptides were dissolved in sterile PBS to a concentration of 200 μM (or 500 μM). The medium in the assay wells was replaced with 100 μl serum free medium. For the assays at pH 6, the medium was initially concentrated (×5 or ×10) and then diluted with double distilled water and addition of sodium carbonate. Before reaching the correct dilution, the medium was adjusted to pH 6 and then more water was added to reach the final dilution. The cells were grown in physiological pH, and the acidic pH was used only during the 24 hours incubation with the peptides. A sign for the correct acidity was a light yellow color of the medium. In line A of the plate, 160 μl of serum free medium was added, if the initial peptide concentration was 500 μM.
Peptide solutions, 100 μl (or 40 μl) were added to each assay well in line A, such that the final concentration of the peptide was […] and the volume 200 μl. The medium in the wells was mixed with multichannel pipette 5 times and 100 μl of it were transferred to the next row of wells (line B), to give a peptide concentration of 50 μM. The double dilution of the peptides continued downstream the plate in the same manner. The plates were then incubated for 24 h.
In day 3, XTT reaction solution was prepared by adding to 100 μl aliquots of activation solution (sodium 3′-[1-(phenyl-aminocarbonyl)-3,4-tetrazolium]-bis(4-methoxy-6-nitro) benzene sulfonic acid hydrate and N-methyl dibenzopyrazine methyl sulfate; mixed in a proportion of 50:1) (protected from light and kept in −20° C.), the substrate. 50 μl of XTT reaction solution were added to each well and the plates were incubated for 2 hours (37° C. and 5% CO2+95% air. In cases the incubation was not enough for the creation of the color, it was extended for up to 24 hours). The optical density was read at wavelength of 450 nm in an ELISA plate reader. Cell viability was determined relative to the control and final results were recorded. The results were confirmed using replications in at least three independent experiments. […]

Series [2] concerns AI CL1 human PC cells xenograft. The series can be described thus: Inhibition of tumor growth in human prostate cancer xenografts, CL1. Format: in vivo, nude male mice. On the procedure:
(i) Inhibition of tumor growth in human prostate cancer xenografts. Subcutaneouse (s.c.) implantation of human PC cells in mice was done as previously described in Gavish et al. (Gavish et al. 2002). Briefly, 0.1 ml AI CL1 or 22RV1 human PC cells (5×10^6 cells) in Matrigel were inoculated s.c. into the dorsal side of five to six week-old nude male mice weighing 20-25 g (Harlen Co., Israel). Two weeks after cell implantation, when the tumors diameter reached ≧5 mm (denoted as day 1), the diastereomer 13 and its all L-amino acid analog peptide (at 1 mg/kg, 0.1 mM), or vehicle (PBS, pH=7.4) were injected intratumorally (dosing volume of 2.5 ml/kg) three times a week for a total of 9 doses. Tumor size was measured by a caliper and recorded twice a week during a period of 28 days. Mice were weighed and tumor weight (mg) was estimated by using the formula of length×width×depth×0.52 in mm^3, assuming the specific gravity to be 1. At the end of the treatment, the mice were killed, and the tumors were removed, photographed, and weighed. The animal experimentation was conducted according to the rules of the Institutional Animal Care and Use Committee.

A short description of series [3]: Acute toxicity test in mice (intravenous). It is filed as in vivo. The note with it: for mortality: mice, i.v., one dose per day for 2 days. As for the experimental part: Acute toxicity of peptides 1, 13 and 16 was examined by intravenously injecting mice (n=3), each with one dose per day for 2 days of 0.5 ml solution containing peptides 1, 13 or 16 at 3, 9, 15, 20 and 30 mg/kg of body weight.
A week after injecting the peptides, blood samples were taken from the survived mice. […] Thus, the peptides 13 and 16 of the invention are not toxic even when administered at concentrations considerably higher than those necessary for their anticancer activity.

The subject of series [4] is RFP-MDA-MB-231 breast cancer (BC) cells xenograft. The series can be described thus: Inhibition of tumor growth in breast cancer xenografts. It is filed as in vivo, female SCID/NCr mice. As for the experimental part:
RFP-MDA-MB-231 breast cancer (BC) cells were injected (5×10^6 cells in 0.1 ml PBS) into the left mammary fat pad of 8-week-old female SCID/NCr mice (NCI, USA) as previously described ([…] et al., 2004). […] Mice were weighed and tumor volume was measured by a caliper (expressed in weight units (mg) (Papo et al., 2003) twice a week for a period of 45 days. Monitoring of solid breast tumor and its derived metastases was done by in vivo fluorescence. Tumor fluorescence intensity was monitored in real time by using in vivo optical imaging system (IVIS) and was recorded once a week during the period of 38 days.

Where [5] appears, read: 5 mg/kg systemically, three times a week, 9 doses.

≈ marks a conversion by molar mass, not a printed value. Where two headings read alike, the source gives them in different places. Square brackets hold non-standard residues; d marks the D form. Peptide text beside a SMILES is read from it.

For the compound `CC(C)C[C@H](NC(=O)[C@H](CC(C)C)NC(=O)[C@@H](CCCCN)NC(=O)[C@H](CC(C)C)NC(=O)[C@H](CC(C)C)NC(=O)[C@H](Cc1c[nH]cn1)NC(=O)[C@@H](CCCCN)NC(=O)[C@@H](CC(C)C)NC(=O)[C@H](CC(C)C)NC(=O)[C@@H](CCCCN)NC(=O)[C@H](Cc1c[nH]cn1)NC(=O)[C@H](CC(C)C)NC(=O)[C@@H](CC(C)C)NC(=O)[C@H](CCCCN)NC(=O)[C@@H](N)CC(C)C)C(N)=O` [Peptide 13] (H-LK[dL]LH[dK]L[dL][dK]HLL[dK]LL-NH2), the CC50 at 24 h worked out at 19 µg/mL (≈ 10.4 µM) in series [1] (NIH3T3, pH 6, 24 h) and 50 µg/mL (≈ 27.4 µM) in series [1] (NIH3T3, pH 7.4, 24 h). The tumor weight entry in series [2] (CL1 xenograft, 1 mg/kg intratumorally, 9 doses) is “significant reduction”. Moreover, the “body weight of the animals compared with vehicle-treated control group” value is listed as “increase” in series [2] (prostate cancer xenografts (CL1, 22RV1)) and “increase” in series [4] (mouse, in vivo). Further, the mortality entry is given as “No mortality” in series [3] (3 mg/kg), “No mortality” in series [3] (9 mg/kg), “no mortality” in series [3] (15 mg/kg) and “no mortality” in series [3] (20 mg/kg). Also, the “blood differential and biochemistry tests” value in series [3] (survived mice, a week after injection) is given as “in the range of normal values”. The “tumor fluorescence (IVIS)” value in series [4] (setting [5]) is reported as “marked lowering”. For the same compound, the “tumor size (caliper measurements)” value in series [4] (setting [5]) is listed as “major reduction”. Also, in series [4] (throughout the assay period), the condition of animals result was “good condition”.

For the origin of these results see US20090305954A1, “HISTIDINE-CONTAINING DIASTEREOMERIC PEPTIDES AND USES THEREOF” (Yeda Research and Development Co. Ltd., priority 2005, published 2009).
